The subject of test [1] is fungi. To be noted: racemic compound, described in WO 2010/063700; cited from earlier work.
The test system of test [2] is fungi. The experiment in a line: fungicidal activity (general statement, no test described). To be noted: enantiomer Ib compared with enantiomer Ia / racemate.

Where two headings read alike, the source gives them in different places.

Regarding `CON(C(=O)c1cn(C)nc1C(F)F)C(C)Cc1c(Cl)cc(Cl)cc1Cl` (racemic) [3-(difluoromethyl)-N-methoxy-1-methyl-N-[1-methyl-2-(2,4,6-trichlorophenyl)ethyl]pyrazole-4-carboxamide], the fungicidal activity entry in the test with fungi [1] was “excellent fungicidal activity”.
With `CON(C(=O)c1cn(C)nc1C(F)F)[C@@H](C)Cc1c(Cl)cc(Cl)cc1Cl` [Ib, 3-(difluoromethyl)-N-methoxy-1-methyl-N-[(1S)-1-methyl-2-(2,4,6-trichlorophenyl)ethyl]pyrazole-4-carboxamide], the fungicidal activity entry in the test on fungi [2] was “more prominent fungicidal activity”.

These data come from US9637457B2, “Process for the stereoselective preparation of a pyrazole-carboxamide” (Syngenta Participations AG, priority 2014, dated 2017).
